Where a SMILES comes first, the peptide text is derived from it. [ ]: non-standard residue; d: D form. βAla = NCCC(=O)O
System: hUVECs
Assay: Quantification of peptide and hydrogel degradation in cell-laden PEG hydrogels (Cy3/FAM fluorescence)
Type: in vitro ADME, human
Text: Next we designed systems to quantify the amount of crosslinking peptide degradation and bulk hydrogel degradation during culture. We synthesized both the KLVAD‐LM peptide and the PanMMP peptide with an N‐terminal Cy3 and a C‐terminal azide to click into the PEG hydrogel network, and also coupled fluorescein (FAM) to the hydrogel using a non‐degradable linker (Figure 5A). Proteolytic cleavage of the crosslinking peptides will liberate the Cy3 from the PEG hydrogel, and bulk erosion of the hydrogel reduces the amount of PEG and FAM. At desired time points, the gels were completely degraded with trypsin, and the fluorescence intensity of Cy3 and FAM was measured to quantify peptide and hydrogel degradation during culture (Figure 5B).
Figure 5 The rate of degradation of crosslinking peptides in the hydrogels was quantified using fluorescence. A) A fraction of PEG arms were functionalized with PanMMP and KLVAD‐LM peptides that were labeled with […] on their N‐terminus and conjugated to the PEG hydrogel matrix on their C‐terminus to quantify crosslinker degradation. Fluorescein (FAM) was also conjugated to the hydrogel through non‐degradable linkers to quantify bulk hydrogel degradation. […] The amounts of remaining Cy3 and FAM were quantified using fluorescence spectroscopy. […]

CSCC[C@H](NC(=O)[C@H](CC(C)C)NC(=O)[C@H](CC(=O)O)NC(=O)[C@H](C)NC(=O)[C@@H](NC(=O)[C@H](CC(C)C)NC(=O)[C@H](CCCCN)NC(=O)CCNC(C)=O)C(C)C)C(=O)N[C@@H](C)C(=O)N[C@@H](CO)C(=O)N[C@@H](C)C(=O)N[C@@H](CCC(=O)O)C(=O)NCCC(N)=O [KLVAD-LM] (Ac-[βAla]KLVADLMASAE[βAla]-NH2) was tested, and the “degradation within hydrogels relative to that seen with the PanMMP peptide, hUVECs” value was 40–60%.

From paper PMC12683216, “Using High‐Throughput Screening to Identify Crosslinking Peptides That Control Cell‐Mediated Matrix Degradation” (Advanced Healthcare Materials, 2025)
